Values joined by “and” are separate entries in the source; they are usually repeats but may differ in a detail not shown here. Equal entries are not always repeated.
Experiments:
[1] = molar enthalpy of vaporization or sublimation; settings: Crystal, Clausius-Clapeyron equation and measured Psat
[2] = Crystal, Calculated from knudsen effusion weight loss

Nc1cccc2c(N)cccc12 [1,5-diaminonaphthalene]
Settings	molar enthalpy [kcal/mol]	vapor or sublimation pressure
[1], 378.11 K	28.3	–
[2], 367.07 K	–	0.000122 kPa and 0.000123 kPa and 0.000125 kPa
[2], 369.1 K	–	0.00015 kPa and 0.000153 kPa and 0.000149 kPa
[2], 371.16 K	–	0.000193 kPa and 0.00019 kPa and 0.000182 kPa
[2], 373.08 K	–	0.000243 kPa and 0.000229 kPa and 0.000246 kPa
[2], 375.1 K	–	0.000311 kPa and 0.000289 kPa and 0.000286 kPa
[2], 377.16 K	–	0.000365 kPa and 0.000344 kPa and 0.000338 kPa
[2], 379.09 K	–	0.000432 kPa and 0.000427 kPa and 0.000417 kPa
[2], 381.1 K	–	0.000535 kPa and 0.000522 kPa and 0.000502 kPa
[2], 383.16 K	–	0.00064 kPa and 0.000622 kPa and 0.000603 kPa
[2], 385.08 K	–	0.000758 kPa and 0.000781 kPa and 0.000757 kPa
[2], 387.09 K	–	0.000967 kPa and 0.00093 kPa and 0.000909 kPa
[2], 389.16 K	–	0.001163 kPa and 0.001096 kPa and 0.001063 kPa

Nc1cccc2cccc(N)c12 [1,8-diaminonaphthalene]
Settings	molar enthalpy [kcal/mol]	vapor or sublimation pressure
[1], 326.09 K	23.3	–
[2], 314.1 K	–	4.71e-05 kPa and 4.91e-05 kPa and 4.81e-05 kPa
[2], 316.18 K	–	6.84e-05 kPa and 6.65e-05 kPa and 6.32e-05 kPa
[2], 318.18 K	–	8.3e-05 kPa and 7.89e-05 kPa and 8.02e-05 kPa
[2], 320.09 K	–	0.000102 kPa and 9.96e-05 kPa
[2], 322.13 K	–	0.000135 kPa and 0.000127 kPa and 0.000126 kPa
[2], 324.19 K	–	0.000165 kPa and 0.000155 kPa and 0.000159 kPa
[2], 326.12 K	–	0.000197 kPa and 0.000204 kPa and 0.000181 kPa
[2], 328.19 K	–	0.000261 kPa and 0.000251 kPa and 0.000244 kPa
[2], 330.17 K	–	0.000315 kPa and 0.000298 kPa and 0.000296 kPa
[2], 332.07 K	–	0.000351 kPa and 0.000379 kPa and 0.000364 kPa
[2], 334.12 K	–	0.000485 kPa and 0.000472 kPa and 0.000466 kPa
[2], 336.19 K	–	0.000583 kPa and 0.00056 kPa and 0.000585 kPa
[2], 338.08 K	–	0.000707 kPa and 0.000739 kPa and 0.000734 kPa

— the NIST ThermoML archive (doi:10.1016/j.jct.2009.09.009)
